# Measurements reported in patent US8420307B2, “Sperm cryoprotective media” (The Jackson Laboratory, priority 2006, dated 2013).
# “Also recorded” adds a separate entry of the source.
# Key:
# [1] = tested on: cryopreserved mouse sperm; assay: In vitro fertilization with thawed cryopreserved sperm: fertilization rate (#2-cell embryos/# total oocytes); type: cell-based; conditions: for effect on fertilization rate / fertility of cryopreserved C57BL/6J sperm: MTG 159 μM to 636 μM in CPM, relative to presently-available methods, FIG. 1
# Description: The epididymides and vas deferentia are extracted from the C57BL/6J male and placed into the cryoprotective media described herein. […] Incisions are made in the tissues, allowing the sperm to swim out into the CPM; this is allowed for at least 5 but for less than 20 min. The residual tissues are then removed from the collection drop. Ten micro liters of the sperm sample are loaded into as many as one hundred 250 μL French straws (IMV; Maple Grove, Minn.). Two hundred and fifty microliter straws, containing a 5.5 cm column of CPM, a 2.5 cm column of air, a 0.6 cm column of sperm sample followed by a column of air, are sealed with an instantaneous heat sealer. The straws are loaded into cassettes and exposed to liquid nitrogen vapor for at least 10 min before being plunged into the liquid nitrogen. This essentially cools the sperm at 37° C./min.
# Subsequent to storage in liquid nitrogen, 3 samples from each treatment are thawed in a 37° C. water bath for 30 sec, and then each 10 μL aliquot is placed directly into its own 500 μL in vitro fertilization (IVF) drop of Cooks Mouse Vitro Fert (Cook Australia; Queensland, Australia). After an hour of incubation, 4 cumulus intact oocyte clutches from superovulated C57BL/6J females are added to the in vitro fertilization drops. IVF is carried out using methods known to those of skill in the art, such as by the methods described by Nakagata. (Nakagata, 2000a; Nakagata, 2000b). The sperm and oocytes are incubated together for 4 hrs before the presumptive zygotes are removed from the IVF drop and placed in a culture drop for overnight incubation.
# Approximately 18 hours later, the percentage of oocytes developing into 2-cell embryos is determined (#2-cell embryos/# total oocytes). For statistical analysis, percents are arcsine transformed and the averages of at least 3 IVF drops per treatment are evaluated with a T-Test. A difference between treatments is illustrated with an asterisk (p<0.05). For presentation, means and standard errors were converted back into percents. […]
# Ten μL aliquots of sperm from a variety of mouse strains as listed in Table 7 are frozen in the CPM with 477 μM monothioglycerol as ROS(CPM). A total of at least 6 sperm samples per treatment within a strain are utilized. These represented at least 3 samples from each of at least 2 sets of 2 males whose sperm are pooled at the time of collection and then split into the two treatments. Subsequent to thawing the samples are placed directly into their own 500 μL in vitro fertilization (IVF) drop of Cooks Mouse Vitro Fert (Cook Australia; Queensland, Australia; (Quinn et al., 1995)). After an hour incubation, 4 cumulus intact oocyte clutches from isogenic strains were added to the incubation medium. Following a 4 hr co-incubation, the presumptive zygotes were washed and cultured overnight. Approximately 18 hours later, the fertilization rate was determined (% 2 cell: #2-cell embryos/# total oocytes, see Table 7). The average percentage was determined. For each line, about 30 2-cell embryos were implanted into receptive females. After approximately 21 days, the number of live born mice was determined, shown as % Live born in Table 7.
# To determine if storage of the cryoprotective media at −80° C. altered the activity of the C57BL/6J mouse sperm., in vitro fertilizations (IVF) were preformed as described previously (see Example 1, also see publications by Nakagata, 2000a; Nakagata, 2000b, Sztein et al. 2000; Byers et al. 2006). Briefly the sperm and oocytes, both from C57BL/6J mice, were incubated together for 4 hrs in a benchtop incubator at 37° C. After 4 hrs of co-incubation the presumptive zygotes were washed through two 150 μL drops of IVF media (MVF; Cook's; Spencer, Ind.) and then cultured overnight. Approximately 18 hrs later, the proportion of oocytes fertilized was calculated by dividing the number of two-cell embryos by the sum of two-cells and normally appearing presumptive one-cell oocytes. […]
# C57BL/6 Sperm = assay: Post-thaw motility of mouse sperm (IVOS computerized semen analysis); type: cell-based; conditions: for IVF Fit: motility of at least 5% is required to achieve fertilization in IVF
# Description: To determine the concentration, motility, and progressive motility of “freshly-collected” sperm, the sperm is typically diluted 1:20 in either phosphate buffered saline or Cooks Mouse Vitro Fert (Cook Australia; Queensland, Australia; (Quinn et al., 1995)). To assess thawed sperm, sperm is incubated in IVF medium for an hour, at a dilution of 1:50 in the IVF drop. It is then loaded into a Hamilton Thom IVOS computerized semen analyzer (Hamilton Thom, Beverly, Mass.). For measurement, the calibration parameters are set as follows: • Apply Sort: 2 • Frames acquired: 30 • Frame rate: 60 Hz • Minimum contrast: 30 • Minimum Cell Size: 4 pixels • Minimum Static Contrast: 15 • Straightness (STR), Threshold: 50% • Low VAP Cutoff: 10.0 μm/s • Medium VAP Cutoff: 50.0 μmis • Low VSL Cutoff: 0.0 grids • Head Size, Non-Motile: 13 pixels • Head Intensity, Non-Motile: 75 • Static Head Size: 0.57 to 2.91 • Static Head Intensity: 0.14 to 1.84 • Static Elongation: 0 to 87 • Slow Cells Motile: YES • Magnification: 0.82 • Video Source Camera • Video Frequency: 60 • Bright Field No • Brightness for LED: 2663 • Brightness for Ident: 3000 • Temperature, Set: 37° C.
# If the compound is capable of reducing ROS at the tested concentration, then its effect on sperm motility and fertilization is tested. While the sperm motility assay is a helpful fast screening tool in the case of mouse, this assay is not required for mouse and one can perform only the IVF assay in the case of mouse. For other species, e.g. bovine, the sperm motility assay together with the fluorescence assay is sufficient. The sperm motility assay can be done either with fresh or cryopreserved sperm. For example, the motility can be determined as described in Example 6 (Determination of Sperm Concentration and Motility), using an IVOS instrument. Briefly, C57BL/6 sperm were diluted 1:50 in pre-warmed and gassed mouse vitro fert (Cook's; Spencer, Ind.) under light mineral oil. The samples were incubated for an hour at 37° C., in a humidified atmosphere of 5% CO2, 5% O2 and 90% nitrogen in a K-MINC-1000 bench top incubator (Cook's; Spencer, Ind.). After incubation, the sperm were drawn into 0.1×2.0 mm I.D. tubes (VitroCom Inc. Mt Lks. N.J.) using capillary action and 3 manually selected fields per sample were analyzed for motility using the Hamilton Thorn (Beverly, Mass.) integrated visual optics system (IVOS) for computerized semen analysis. Applicants have shown that sperm frozen in CPM containing no free radical scavenger, 0.477 mM MTG, 0.1 mM DTT, 1 mM DTT, 5 mM DTT, 20 mM DTT, 0.5 mM GSH, 1 mM GSH, 5 mM GSH or 50 mM GSH can be assessed for motility and that motility of at least 5% is required to achieve fertilization in IVF.
# [2] = C57BL/6 sperm cryopreserved in CPM containing 1 mM free radical scavenger
# [3] = C57BL/6 sperm cryopreserved in CPM containing 5 mM free radical scavenger
# [4] = C57BL/6 sperm frozen in CPM containing 1 mM free radical scavenger
# [5] = C57BL/6 sperm frozen in CPM containing 5 mM free radical scavenger
smiles,measurement,setting,value
"O[C@H](CS)[C@H](O)CS (racemic) [DTT, dithiothreitol]",Fertilization Rate (2-cell embryos of total oocytes),[1]; C57BL/6 sperm cryopreserved in CPM containing 0.1 mM free radical scavenger,19.2%
same,Fertilization Rate (2-cell embryos of total oocytes),[1]; [2],2%
same,Fertilization Rate (2-cell embryos of total oocytes),[1]; [3],0.9%
same,Fertilization Rate (2-cell embryos of total oocytes),[1]; C57BL/6 sperm cryopreserved in CPM containing 20 mM free radical scavenger,6.4%
same,IVF Fit,C57BL/6 Sperm; 0.1 mM,yes
same,IVF Fit,C57BL/6 Sperm; 1 mM,yes
same,IVF Fit,C57BL/6 Sperm; 5 mM,yes
same,IVF Fit,C57BL/6 Sperm; 20 mM,no
same,Average Post Thaw Motility,C57BL/6 Sperm; C57BL/6 sperm frozen in CPM containing 0.1 mM free radical scavenger,24.6%
same,Average Post Thaw Motility,C57BL/6 Sperm; [4],34%
same,Average Post Thaw Motility,C57BL/6 Sperm; [5],17.6%
same,Average Post Thaw Motility,C57BL/6 Sperm; C57BL/6 sperm frozen in CPM containing 20 mM free radical scavenger,1.6%
"N[C@@H](CCC(=O)N[C@@H](CS)C(=O)NCC(=O)O)C(=O)O [GSH, reduced glutathione]",Fertilization Rate (2-cell embryos of total oocytes),[1]; C57BL/6 sperm cryopreserved in CPM containing 0.5 mM free radical scavenger,59.7%
same,Fertilization Rate (2-cell embryos of total oocytes),[1]; [2],49.5%
same,Fertilization Rate (2-cell embryos of total oocytes),[1]; [3],39.9%
same,Fertilization Rate (2-cell embryos of total oocytes),[1]; C57BL/6 sperm cryopreserved in CPM containing 50 mM free radical scavenger,0.0%
same,effect on fertilization rates / fertility of cryopreserved C57BL/6J sperm,"[1]; GSH 500 μM to 5 mM in CPM, compared to CPM without a reducing agent, FIG. 2",increase the fertilization rates; also recorded: enhances the fertility
same,IVF Fit,C57BL/6 Sperm; 0.5 mM,yes
same,IVF Fit,C57BL/6 Sperm; 1 mM,yes
same,IVF Fit,C57BL/6 Sperm; 5 mM,yes
same,IVF Fit,C57BL/6 Sperm; 50 mM,no
same,Average Post Thaw Motility,C57BL/6 Sperm; C57BL/6 sperm frozen in CPM containing 0.5 mM free radical scavenger,32%
same,Average Post Thaw Motility,C57BL/6 Sperm; [4],25.3%
same,Average Post Thaw Motility,C57BL/6 Sperm; [5],41.67%
same,Average Post Thaw Motility,C57BL/6 Sperm; C57BL/6 sperm frozen in CPM containing 50 mM free radical scavenger,0.6%
"OCC(O)CS (stereo not shown) [MTG, monothioglycerol]",MTG concentration that provided the best results (fertilization rate),"[1]; C57BL/6J sperm, MTG tested from 159 μM to 636 μM",477 µM
same,Fertilization Rate (2-cell embryos of total oocytes),[1]; C57BL/6 sperm cryopreserved in CPM containing 0.477 mM free radical scavenger,75.2%
same,effect on fertilization rate / fertility of cryopreserved C57BL/6J sperm,[1],improved fertilization rate
same,effect on fertilization rate / fertility of cryopreserved C57BL/6J sperm,[1]; listed as monothioglycerol,enhances the fertility
same,IVF Fit,C57BL/6 Sperm; 0.477 mM,yes
same,Average Post Thaw Motility,C57BL/6 Sperm; C57BL/6 sperm frozen in CPM containing 0.477 mM free radical scavenger,16%
